Laboratory results: patent US20260091026A1, “METHODS OF TREATING INFLAMMATORY DISEASES” (INTERLINE THERAPEUTICS, INC., priority 2023, published 2026)
Like-named read-outs stand apart in the source and are kept apart here.

What was measured:
[1] = system: THP1-Dual cells, NF-κB pathway (SEAP); assay: THP-1 Dual cell SEAP assay (L18-MDP stimulated); assay type: cell-based; settings: 10 ng/mL L18-MDP, 20-24 h, SEAP readout, read-out: IFNγ THP1 IC50
Method in brief: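 About 25,000 THP1-Dual cells per well were preincubated 30 min with serially diluted compound, then stimulated overnight (20-24 h, 37 °C) with 10 ng/mL L18-MDP (final). NF-κB-driven SEAP in supernatant was read with QUANTI-Blue at OD 620-655 nm after 2 h; % inhibition versus DMSO/L18-MDP wells was fitted by non-linear regression to give IC50.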

RIPK2 (KD)/XIAP (BIR2) = molecular target: T1, RIPK2 (KD)/XIAP (BIR2) (Homo sapiens, UniProt O43353); assay: RIPK2-XIAP binding competition PPI assay (TR-FRET); settings: for Emax: read-out: PPI Amax; for IC50: GST-RIPK2 / His-XIAP (BIR2)-avi, 120 min at 23° C.
T1 construct: made in house; host or cells: baculovirus-infected Sf9 cells
Method in brief: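 TR-FRET competition between GST-RIPK2 (aa 1-310, 1 nM) and His-XIAP BIR2-avi (aa 152-231, 25 nM), both Sf9-expressed, detected with anti-His-XL665 and anti-GST-Tb in Tris pH 7.5 buffer with MgCl2, DTT and vanadate. Incubation was 120 min at 23 °C; the 665/520 nm ratio was normalized to no inhibitor (0%) and 50 nM GSK583 (−100%).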

[2] = molecular target: T2, GST-RIPK2 fusion protein (human RIPK2 amino acids 1-310) (Homo sapiens, UniProt O43353); assay: RIPK2 binding competition assay (TR-FRET, Tracer 199); settings: displacement of Tracer 199 (10 nM), 45 min at 22° C.
T2 construct: made in house; host or cells: baculovirus-infected Sf9 cells
Description: The ability of selected compounds of Formulas (I) and (II) to inhibit the binding of an Alexa647-labelled ATP-competitive kinase inhibitor to a GST-RIPK2 fusion protein was quantified employing the TR-FRET-based RIPK2 binding competition assay as described in the following paragraphs.
Recombinant fusion protein of N-terminal Glutathione-S-Transferase (GST) and a fragment of human RIPK2 (amino acids 1-310 of accession number 043353), expressed in baculovirus infected Sf9 cells, purified via glutathione affinity chromatography, was used as GST-RIPK2 fusion protein. Tracer 199 from Life Technologies (catalogue no. PR9115B) was used as Alexa647-labelled ATP-competitive kinase inhibitor.
For the assay, 50 nL of a 100-fold concentrated solution of each test compound in DMSO was pipetted into either a black low volume 384-well microtiter plate or a black 1536-well microtiter plate (both Greiner Bio-One, Frickenhausen, Germany), 3 μL solution of Tracer 199 (16.7 nM=>final concentration in 5 μL assay volume is 10 nM) in aqueous assay buffer (25 mM Tris/HCl pH 7.5, 10 mM magnesium chloride (MgCl2), 5 mM β-glycerophosphate, 2.5 mM dithiothreitol (DTT), 0.5 mM ethylene glycol-bis(2-aminoethylether)-N,N,N′,N′-tetraacetic acid (EGTA), 0.5 mM sodium ortho-vanadate, 0.01% (w/v) bovine serum albumin (BSA), 0.005% (w/v) Pluronic F-127 (Sigma)) were added. Then the binding competition was started by the addition of 2 μL of a solution of the GST-RIPK2 fusion protein (2.5 nM=>final conc. in the 5 μL assay volume is 1 nM) and of Anti-GST-Tb (1.25 nM=>final conc. in the 5 μL assay volume is 0.5 nM), a Lumi4®—Tb cryptate-conjugated anti-GST antibody from PerkinElmer (catalogue no 61GSTTAH), in assay buffer.
The resulting mixture was incubated 45 min at 22° C. to allow the formation of a complex between the Tracer 199, the fusion protein and Anti-GST-Tb. Subsequently, the amount of this complex was evaluated by measurement of the resonance energy transfer from the Tb-cryptate to the Tracer 199. Therefore, the fluorescence emissions at 620 nm and 665 nm after excitation at 337 nm were measured in a TR-FRET reader, e.g. a Pherastar FS(BMG Labtechnologies, Offenburg, Germany) or a Viewlux (PerkinElmer). The ratio of the emissions at 665 nm and at 620 nm was taken as the measure of the amount of the complex. The data were normalized (assay reaction without inhibitor=0% activity, all other assay components but no GST-RIPK2 fusion protein=−100% activity).

[3] = 50 nM of GSK583 = -100% activity

T1 sequence (O43353 1-310): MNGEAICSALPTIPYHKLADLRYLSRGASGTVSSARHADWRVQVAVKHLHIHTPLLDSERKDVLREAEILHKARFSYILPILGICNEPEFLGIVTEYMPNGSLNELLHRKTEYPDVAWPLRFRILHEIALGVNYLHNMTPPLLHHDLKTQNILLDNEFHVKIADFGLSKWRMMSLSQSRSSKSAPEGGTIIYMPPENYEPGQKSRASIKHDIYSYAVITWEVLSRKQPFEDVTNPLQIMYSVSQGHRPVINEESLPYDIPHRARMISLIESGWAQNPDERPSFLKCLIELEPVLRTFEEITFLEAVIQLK
T2 sequence (O43353 1-310): as above

Q: For `COc1cc2ncc(-n3cc(NC(=O)c4ccccc4)cn3)n2cc1S(=O)(=O)C(C)(C)C` [Example 170, N-(1-(6-(tert-butylsulfonyl)-7-methoxyimidazo[1,2-a]pyridin-3-yl)-1H-pyrazol-4-yl)benzamide], which IC50 ([1]; Homo sapiens) is on record?
A: > 2500 nM

Q: And the Emax (RIPK2 (KD)/XIAP (BIR2); [3])?
A: 55 to 80%

Q: And the IC50 (RIPK2 (KD)/XIAP (BIR2))?
A: > 1000 nM

Q: What about the IC50 [2] of the same molecule?
A: > 1000 nM

Q: What does the source list for `COc1cc2ncc(-n3cc(NC(=O)Cc4cccc(F)c4Cl)cn3)n2cc1S(=O)(=O)C(C)(C)C` [Example 156, N-(1-(6-(tert-butylsulfonyl)-7-methoxyimidazo[1,2-a]pyridin-3-yl)-1H-pyrazol-4-yl)-2-(2-chloro-3-fluorophenyl)acetamide]?
A: IC50 ([1]; Homo sapiens): > 2500 nM; Emax (RIPK2 (KD)/XIAP (BIR2); [3]): ≥ 80%; IC50 (RIPK2 (KD)/XIAP (BIR2)): > 1000 nM; IC50 [2]: 500 to 1000 nM

Q: `COc1cc2ncc(-n3cc(NC(=O)OC(C)(C)C)cn3)n2cc1S(=O)(=O)C(C)(C)C` [Example 154, tert-butyl (1-(6-(tert-butylsulfonyl)-7-methoxyimidazo[1,2-a]pyridin-3-yl)-1H-pyrazol-4-yl)carbamate] was tested. Which IC50 ([1]; Homo sapiens) did it give?
A: > 2500 nM

Q: And the Emax (RIPK2 (KD)/XIAP (BIR2); [3])?
A: ≥ 80%

Q: What about the IC50 (RIPK2 (KD)/XIAP (BIR2)) of the same molecule?
A: > 1000 nM

Q: What about the IC50 [2] of the same molecule?
A: 500 to 1000 nM

Q: Which IC50 ([1]; Homo sapiens) does the source give for `COc1cc2ncc(-n3cc(NC(=O)Cc4c(F)cccc4Cl)cn3)n2cc1S(=O)(=O)C(C)(C)C` [Example 159, N-(1-(6-(tert-butylsulfonyl)-7-methoxyimidazo[1,2-a]pyridin-3-yl)-1H-pyrazol-4-yl)-2-(2-chloro-6-fluorophenyl)acetamide] here?
A: 500 to 2500 nM

Q: And the Emax (RIPK2 (KD)/XIAP (BIR2); [3])?
A: ≥ 80%

Q: What about the IC50 (RIPK2 (KD)/XIAP (BIR2)) of the same molecule?
A: 100 to 1000 nM

Q: What about the IC50 [2] of the same molecule?
A: < 200 nM

Q: With `COc1cc2ncc(-c3cc(NC(=O)Cc4ccccc4Cl)n(C)n3)n2cc1C1(F)CCN(C)CC1` [Example 186, 2-(2-chlorophenyl)-N-(3-(6-(4-fluoro-1-methylpiperidin-4-yl)-7-methoxyimidazo[1,2-a]pyridin-3-yl)-1-methyl-1H-pyrazol-5-yl)acetamide] as the molecule, how does the IC50 ([1]; Homo sapiens) read?
A: 500 to 2500 nM

Q: What about the Emax (RIPK2 (KD)/XIAP (BIR2); [3]) of the same molecule?
A: ≥ 80%

Q: What about the IC50 (RIPK2 (KD)/XIAP (BIR2)) of the same molecule?
A: 10 to 100 nM

Q: And the IC50 [2]?
A: < 200 nM

Q: Which IC50 ([1]; Homo sapiens) does the source give for `COc1cc2ncc(-n3cc(NC(=O)[C@H](C)c4ccccc4)cn3)n2cc1S(=O)(=O)C(C)(C)C` [Example 161, (R)-N-(1-(6-(tert-butylsulfonyl)-7-methoxyimidazo[1,2-a]pyridin-3-yl)-1H-pyrazol-4-yl)-2-phenylpropanamide] here?
A: > 2500 nM

Q: And the Emax (RIPK2 (KD)/XIAP (BIR2); [3])?
A: ≥ 80%

Q: What about the IC50 (RIPK2 (KD)/XIAP (BIR2)) of the same molecule?
A: 100 to 1000 nM

Q: And the IC50 [2]?
A: 200 to 500 nM

Q: `COc1cc2ncc(-c3cc(C(=O)NC4CCCCC4)n(C)n3)n2cc1S(=O)(=O)C(C)(C)C` [Example 6, 3-(6-(tert-butylsulfonyl)-7-methoxyimidazo[1,2-a]pyridin-3-yl)-N-cyclohexyl-1-methyl-1H-pyrazole-5-carboxamide] was tested. Which IC50 ([1]; Homo sapiens) did it give?
A: > 2500 nM

Q: What about the Emax (RIPK2 (KD)/XIAP (BIR2); [3]) of the same molecule?
A: ≥ 80%

Q: What about the IC50 (RIPK2 (KD)/XIAP (BIR2)) of the same molecule?
A: > 1000 nM

Q: And the IC50 [2]?
A: > 1000 nM

Q: How did the IC50 [1] turn out when `COc1cc2ncc(-n3cc(N4CCC(c5ccccc5)C4=O)cn3)n2cc1S(=O)(=O)C(C)(C)C` (single isomer, unassigned) [Example 183, (S)- or (R)-1-(1-(6-(tert-butylsulfonyl)-7-methoxy-imidazo[1,2-a]pyridin-3-yl)-1H-pyrazol-4-yl)-3-phenylpyrrolidin-2-one] was run?
A: > 2500 nM

Q: And the “PPI Amax” value (RIPK2 (KD)/XIAP (BIR2); [3])?
A: A (Amax of ≥80%)

Q: And the IC50 (RIPK2 (KD)/XIAP (BIR2))?
A: > 1000 nM

Q: And the IC50 [2]?
A: > 1000 nM

Q: Which IC50 ([1]; Homo sapiens) does the source give for `COc1cc2ncc(-c3cc(NC(=O)C4(F)CCCCC4)n(C)n3)n2cc1S(=O)(=O)C(C)(C)C` [Example 176, N-(3-(6-(tert-butylsulfonyl)-7-methoxyimidazo[1,2-a]pyridin-3-yl)-1-methyl-1H-pyrazol-5-yl)-1-fluorocyclohexane-1-carboxamide] here?
A: 500 to 2500 nM

Q: What about the Emax (RIPK2 (KD)/XIAP (BIR2); [3]) of the same molecule?
A: ≥ 80%

Q: And the IC50 (RIPK2 (KD)/XIAP (BIR2))?
A: 100 to 1000 nM

Q: And the IC50 [2]?
A: < 200 nM

Q: `COc1cc2ncc(-n3cc(N4CCC5(CCCCC5)C4=O)cn3)n2cc1S(=O)(=O)C(C)(C)C` [Example 181, 2-(1-(6-(tert-butylsulfonyl)-7-methoxyimidazo[1,2-a]pyridin-3-yl)-1H-pyrazol-4-yl)-2-azaspiro[4.5]decan-1-one] was tested. Which IC50 ([1]; Homo sapiens) did it give?
A: > 2500 nM

Q: And the Emax (RIPK2 (KD)/XIAP (BIR2); [3])?
A: 30 to 55%

Q: And the IC50 (RIPK2 (KD)/XIAP (BIR2))?
A: > 1000 nM

Q: And the IC50 [2]?
A: > 1000 nM
